Experiments:
Rat = assay: Sub-acute toxicity, rat
blood routine tests = assay: Sub-acute toxic effect on blood routine tests; format: in vivo, Rat; set-up: WBC / RBC: unit not given beside the values; details: for PLT: in 10^9/L (unit assumed); for Lymphocyte (LYM): in % (unit assumed); for HGB: in g/L (unit assumed)

CCCCC(O)c1ccc(Br)cc1C(=O)[O-].[Na+] (stereo not drawn) [BZP (amorphous form), 5-bromo-2-(α-hydroxypentyl)benzoic acid sodium salt]
Sub-acute (Rat; ig): >20 mg/kg
Sub-acute (Rat; iv): >12 mg/kg
Basophil (RAS) (blood routine tests; F, ig (20 mg/kg)): 1.43 ± 1.17
Eosinophil (EOS) (blood routine tests; F, ig (20 mg/kg)): 0.23 ± 0.12
Monocyte (MON) (blood routine tests; F, ig (20 mg/kg)): 2.05 ± 1.74
Neutrophil (NEU) (blood routine tests; F, ig (20 mg/kg)): 28.44 ± 10.20
RBC (blood routine tests; F, ig (20 mg/kg)): 4.51 ± 3.30
WBC (blood routine tests; F, ig (20 mg/kg)): 4.44 ± 2.24
PLT (blood routine tests; F, ig (20 mg/kg)): 1146.00 ± 74.22
Lymphocyte (LYM) (blood routine tests; F, ig (20 mg/kg)): 66.45 ± 11.13
HGB (blood routine tests; F, ig (20 mg/kg)): 117.00 ± 19.70
Basophil (RAS) (blood routine tests; F, iv (12 mg/kg)): 0.56 ± 0.15
Eosinophil (EOS) (blood routine tests; F, iv (12 mg/kg)): 0.76 ± 0.50
Monocyte (MON) (blood routine tests; F, iv (12 mg/kg)): 3.62 ± 0.63
Neutrophil (NEU) (blood routine tests; F, iv (12 mg/kg)): 21.44 ± 2.74
RBC (blood routine tests; F, iv (12 mg/kg)): 6.95 ± 1.06
WBC (blood routine tests; F, iv (12 mg/kg)): 5.20 ± 1.53
PLT (blood routine tests; F, iv (12 mg/kg)): 1075.00 ± 41.70
Lymphocyte (LYM) (blood routine tests; F, iv (12 mg/kg)): 73.62 ± 2.16
HGB (blood routine tests; F, iv (12 mg/kg)): 125.60 ± 16.68
Basophil (RAS) (blood routine tests; M, ig (20 mg/kg)): 0.62 ± 0.25
Eosinophil (EOS) (blood routine tests; M, ig (20 mg/kg)): 0.56 ± 0.50
Monocyte (MON) (blood routine tests; M, ig (20 mg/kg)): 4.93 ± 1.91
Neutrophil (NEU) (blood routine tests; M, ig (20 mg/kg)): 23.88 ± 5.48
RBC (blood routine tests; M, ig (20 mg/kg)): 7.61 ± 0.28
WBC (blood routine tests; M, ig (20 mg/kg)): 5.18 ± 0.71
PLT (blood routine tests; M, ig (20 mg/kg)): 1258.20 ± 281.33
Lymphocyte (LYM) (blood routine tests; M, ig (20 mg/kg)): 70.84 ± 3.99
HGB (blood routine tests; M, ig (20 mg/kg)): 134.00 ± 19.13
Basophil (RAS) (blood routine tests; M, iv (12 mg/kg)): 0.40 ± 0.12
Eosinophil (EOS) (blood routine tests; M, iv (12 mg/kg)): 0.60 ± 0.29
Monocyte (MON) (blood routine tests; M, iv (12 mg/kg)): 3.80 ± 0.70
Neutrophil (NEU) (blood routine tests; M, iv (12 mg/kg)): 22.16 ± 4.14
RBC (blood routine tests; M, iv (12 mg/kg)): 7.86 ± 0.40
WBC (blood routine tests; M, iv (12 mg/kg)): 5.66 ± 2.23
PLT (blood routine tests; M, iv (12 mg/kg)): 1087.20 ± 56.34
Lymphocyte (LYM) (blood routine tests; M, iv (12 mg/kg)): 72.50 ± 4.66
HGB (blood routine tests; M, iv (12 mg/kg)): 141.40 ± 7.20
